Test results from ChEMBL document CHEMBL5113432, “Discovery of novel indole and indoline derivatives against Candida albicans as potent antifungal agents” (Bioorg Med Chem Lett, 2022).
The source made the active and inactive calls. No cut-off for these calls is given here.

Assays:
Candida albicans [1] = test: Antifungal activity against fluconazole-resistant Candida albicans ATCC10231FR assessed as inhibition of fungal growth by microdilution method; assay type: functional, organism-based
Candida albicans [2] = test: Antifungal activity against Candida albicans assessed as inhibition of biofilm formation at 18 to 72 ug/ml incubated for 24 hrs by crystal violet staining based method; assay type: functional, organism-based; settings: dose 18-72 µg/ml
Candida albicans [3] = test: Antifungal activity against fluconazole-sensitive Candida albicans ATCC10231 assessed as inhibition of fungal growth by microdilution method; assay type: functional, organism-based
Candida albicans [4] = test: Antifungal activity against Candida albicans assessed as inhibition of fungal growth at 18 to 72 ug/ml and measured upto 96 hrs by microdilution method; assay type: functional, organism-based; settings: dose 18-72 µg/ml, DDE = dose-dependent effect
Candida albicans [5] = test: Antifungal activity against Candida albicans assessed as downregulation of RAS1 by RT-PCR analysis; assay type: functional, organism-based
Candida albicans [6] = test: Antifungal activity against Candida albicans assessed as downregulation of CYR1 by RT-PCR analysis; assay type: functional, organism-based
Candida albicans [7] = test: Antifungal activity against clinical strain Candida albicans CA808 assessed as inhibition of fungal growth by microdilution method; assay type: functional, organism-based
Candida albicans [8] = test: Antifungal activity against fluconazole-sensitive Candida albicans SC5314 assessed as inhibition of fungal growth by microdilution method; assay type: functional, organism-based
Candida albicans [9] = test: Antifungal activity against Candida albicans assessed as inhibition of hyphae formation in Spider medium at 18 to 72 ug/ml and measured for 4 to 8 hrs by scanning electron microscopy; assay type: functional, organism-based; settings: dose 18-72 µg/ml, time 4-8 hrs, TDE = time-dependent effect
Candida albicans [10] = test: Antifungal activity against Candida albicans assessed as downregulation of ECE1 by RT-PCR analysis; assay type: functional, organism-based
Candida albicans [11] = test: Antifungal activity against Candida albicans assessed as inhibition of fungal growth at 18 to 72 ug/ml and measured 4 to 96 hrs by microdilution method; assay type: functional, organism-based; settings: dose 18-72 µg/ml, time 4-96 hrs, TDE = time-dependent effect
[12] = Cytotoxicity against human 16HBE14o- assessed as inhibition of cell growth incubated for 24 hrs; assay type: toxicity, cell-based; settings: 16HBE14o- cells
Candida albicans [13] = test: Antifungal activity against Candida albicans assessed as downregulation of ALS3 by RT-PCR analysis; assay type: functional, organism-based
Candida albicans [14] = test: Antifungal activity against clinical strain Candida albicans CA187 assessed as inhibition of fungal growth by microdilution method; assay type: functional, organism-based
Candida albicans [15] = test: Antifungal activity against Candida albicans assessed as decrease in filamentous hyphae length in Spider medium at 36 to 72 ug/ml by scanning electron microscopy; assay type: functional, organism-based; settings: dose 36-72 µg/ml
Candida albicans [16] = test: Antifungal activity against clinical strain Candida albicans CA23 assessed as inhibition of fungal growth by microdilution method; assay type: functional, organism-based
Candida albicans [17] = test: Antifungal activity against Candida albicans assessed as downregulation of HWP1 by RT-PCR analysis; assay type: functional, organism-based
Candida albicans [18] = test: Antifungal activity against fluconazole-resistant Candida albicans SC5314FR assessed as inhibition of fungal growth by microdilution method; assay type: functional, organism-based
Candida albicans [19] = test: Antifungal activity against clinical strain Candida albicans CA4574 assessed as inhibition of fungal growth by microdilution method; assay type: functional, organism-based
Candida albicans [20] = test: Antifungal activity against Candida albicans assessed as downregulation of EFG1 by RT-PCR analysis; assay type: functional, organism-based
Candida albicans [21] = test: Antifungal activity against Candida albicans assessed as inhibition of hyphae formation in Spider medium at 18 to 72 ug/ml and measured upto 8 hrs by scanning electron microscopy; assay type: functional, organism-based; settings: dose 18-72 µg/ml, DDE = dose-dependent effect

O=C(CCn1ccc2ccccc21)NCC/N=C/c1ccc(OCc2ccccc2)cc1O
IC50 (Candida albicans [1]): 18 µg/mL

O=C(CCn1ccc2ccccc21)NCC/N=C/c1ccc(OC(F)(F)F)cc1
IC50 (Candida albicans [1]): 29 µg/mL

O=C(CCn1ccc2ccccc21)NCC/N=C/c1ccc(Cl)c(C(F)(F)F)c1
IC50 (Candida albicans [1]): 24 µg/mL

COc1cc(O)c(/C=N/CCNC(=O)CCn2ccc3ccccc32)c(OC)c1
IC50 (Candida albicans [1]): 86 µg/mL

CCN(CC)c1ccc(/C=N/CCNC(=O)CCn2ccc3ccccc32)c(O)c1
inhibition (Candida albicans [2]): Active | IC50 (Candida albicans [3]): 19 µg/mL | inhibition (Candida albicans [4]): Dde | Activity (Candida albicans [5]): Active | Activity (Candida albicans [6]): Active | IC50 (Candida albicans [7]): 78 µg/mL | IC50 (Candida albicans [8]): 22 µg/mL | inhibition (Candida albicans [9]): Tde | Activity (Candida albicans [10]): Active | inhibition (Candida albicans [11]): Tde | CC50 at 24 h [12]: > 200 µg/mL | IC50 (Candida albicans [1]): 21 µg/mL | Activity (Candida albicans [13]): Active | IC50 (Candida albicans [14]): 39 µg/mL | Activity (Candida albicans [15]): Active | IC50 (Candida albicans [16]): 20 µg/mL | Activity (Candida albicans [17]): Active | IC50 (Candida albicans [18]): 75 µg/mL | IC50 (Candida albicans [19]): 74 µg/mL | Activity (Candida albicans [20]): Active | inhibition (Candida albicans [21]): Dde

CCN(CC)c1ccc(S(=O)(=O)NCCNC(=O)CCn2ccc3ccccc32)c(O)c1
IC50 (Candida albicans [1]): > 200 µg/mL

O=C(CCn1ccc2ccccc21)NCC/N=C/c1ccc(Br)cc1
IC50 (Candida albicans [1]): > 200 µg/mL

Cc1ccc(S(=O)(=O)NCCNC(=O)CCn2ccc3ccccc32)cc1
IC50 (Candida albicans [1]): > 200 µg/mL

O=C(CCn1ccc2ccccc21)NCCNS(=O)(=O)c1cc(Cl)c(F)cc1F
IC50 (Candida albicans [1]): > 200 µg/mL

O=C(CCn1ccc2ccccc21)NCCNS(=O)(=O)c1cc(Cl)cc(Br)c1O
IC50 (Candida albicans [1]): > 200 µg/mL

O=C(CCn1ccc2ccccc21)NCCNS(=O)(=O)c1ccc(OCc2ccccc2)cc1O
IC50 (Candida albicans [1]): > 200 µg/mL

O=C(CCn1ccc2ccccc21)NCCNS(=O)(=O)c1ccc(OC(F)(F)F)cc1
IC50 (Candida albicans [1]): > 200 µg/mL

O=C(CCn1ccc2ccccc21)NCCNS(=O)(=O)c1ccc(F)c(C(F)(F)F)c1
IC50 (Candida albicans [1]): > 200 µg/mL

O=C(CCn1ccc2ccccc21)NCCNS(=O)(=O)c1cc(Br)ccc1O
IC50 (Candida albicans [1]): > 200 µg/mL

COc1ccc(O)c(/C=N/CCNC(=O)CCn2ccc3ccccc32)c1
IC50 (Candida albicans [1]): > 200 µg/mL

O=C(CCn1ccc2ccccc21)NCCNS(=O)(=O)c1ccc(Br)cc1
IC50 (Candida albicans [1]): > 200 µg/mL

O=C(CCn1ccc2ccccc21)NCC/N=C/c1cc(Cl)c(F)cc1F
IC50 (Candida albicans [1]): > 200 µg/mL

O=C(CCn1ccc2ccccc21)NCC/N=C/c1ccc(F)c(C(F)(F)F)c1
IC50 (Candida albicans [1]): > 200 µg/mL

OC(Cn1cncn1)(Cn1cncn1)c1ccc(F)cc1F [FLUCONAZOLE]
IC50 (Candida albicans [3]): 10 µg/mL | IC50 (Candida albicans [7]): > 200 µg/mL | IC50 (Candida albicans [8]): 1.3 µg/mL | IC50 (Candida albicans [1]): > 200 µg/mL | IC50 (Candida albicans [14]): > 200 µg/mL | IC50 (Candida albicans [16]): > 200 µg/mL | IC50 (Candida albicans [18]): > 200 µg/mL | IC50 (Candida albicans [19]): 1.2 µg/mL

O=C(CCn1ccc2ccccc21)NCCNS(=O)(=O)c1cc([N+](=O)[O-])ccc1O
IC50 (Candida albicans [1]): > 200 µg/mL
